# Test results published in patent US11508483B2, “Method of identifying a subgroup of patients suffering from dcSSc which benefits from a treatment with sGC stimulators and sGC activators in a higher degree than a control group” (ADVERIO PHARMA GMBH, priority 2018, dated 2022).
# How the values were obtained:
# [1] = tested on: human dermal fibroblasts of SSc patients; details: in vitro; cited from earlier work
# [2] = tested on: TGFβ-induced skin fibrosis; details: mouse, in vivo; cited from earlier work
# [3] = tested on: systemic sclerosis patients; details: cited from earlier work
# patients with dcSSc [4] = assay: RISE-SSc clinical study: Health Assessment Questionnaire disability index (HAQ-DI); assay type: in vivo, human; details: Riociguat vs placebo, week 52
# Procedure: The Health Assessment Questionnaire Disability Index (HAQ-DI) is a well-accepted measure of physical function for various rheumatic diseases, and it is the most widely employed and reported measure for assessing physical function in SSc. As a post hoc analysis in study 16277, the percentage of patients stratified by HAQ-DI categorized change was also performed. Clinically meaningful disease improvement was defined as a decrease in HAQ-DI of more than −0.21 from baseline to week 52; stabilization and/or disease worsening were defined as a change in HAQ-DI less than or equal to −0.21 from baseline to week 52. […] The primary efficacy outcome measure was the change in mRSS from baseline to week 52. Key secondary efficacy measure was Combined Response Index for Systemic Sclerosis (CRISS).
# patients with dcSSc [5] = assay: RISE-SSc clinical study: modified Rodnan skin score (mRSS); assay type: in vivo, human; parameters: key to Difference in LSMeans with regard to mRSS: mRSS points (skin thickness score, max 51); details: for Difference in LSMeans with regard to mRSS: Riociguat vs placebo, week 52; for mean change of mRSS for Riociguat compared to placebo: baseline to week 52
# Text: The modified Rodnan skin score (mRSS) is a measure of skin thickness and is used as a primary or secondary outcome measure in clinical trials of systemic sclerosis. The maximum mRSS possible is 51. Standardization of the modified Rodnan skin score for use in clinical trials of systemic sclerosis is described in Khanna, D. et al., 2017b. […] The primary efficacy outcome measure was the change in mRSS from baseline to week 52. Key secondary efficacy measure was Combined Response Index for Systemic Sclerosis (CRISS).
# patients with dcSSc [6] = assay: RISE-SSc clinical study: lung function, FVC % predicted; assay type: in vivo, human; details: for Difference in LSMeans with regard to FVC % predicted: Riociguat vs placebo, week 52
# Text: Pulmonary physiologic measures, particularly FVC, have frequently been used as surrogate endpoints for SSc-ILD and IPF. […] Also in IPF measurable decline in FVC is correlated with mortality. […] The primary efficacy outcome measure was the change in mRSS from baseline to week 52. Key secondary efficacy measure was Combined Response Index for Systemic Sclerosis (CRISS).
# [7] = subgroup FVC % predicted at baseline 50-75
# [8] = subgroup FVC % predicted at baseline >75
# [9] = subgroup anti-RNA polymerase III autoantibodies negative
# [10] = subgroup anti-RNA polymerase III autoantibodies positive
molecule,measurement,setting,value
Nc1nc(-c2nn(Cc3ccccc3F)c3ncccc23)ncc1C1CC1 [BAY 41-2272],collagen production,[1],reduce collagen production
same,progression of TGFβ-induced skin fibrosis,[2],prevented the progression
Tocilizumab: monoclonal anti-IL-6 receptor-α antibody approved e.g. for the treatment of patients with rheumatoid arthritis,skin score and FVC in placebo-treated patients who transitioned to tocilizumab,[3]; open-label period,skin score improvement and FVC stabilization
same,influence of anti-RNA polymerase III autoantibody profile on the effect on change in mRSS or ppFVC,[3]; week 48,little clinically meaningful influence
"COC(=O)N(C)c1c(N)nc(-c2nn(Cc3ccccc3F)c3ncccc23)nc1N [Riociguat, methyl 4,6-diamino-2-[1-(2-fluorobenzyl)-1H-pyrazolo[3,4-b]pyridin-3-yl]-5-pyrimidinyl(methyl)carbamate]",Difference in LSMeans with regard to HAQ-DI,patients with dcSSc [4]; [7],−0.22
same,Difference in LSMeans with regard to HAQ-DI,patients with dcSSc [4]; [8],−0.07
same,Difference in LSMeans with regard to HAQ-DI,patients with dcSSc [4]; [9],0.02
same,Difference in LSMeans with regard to HAQ-DI,patients with dcSSc [4]; [10],−0.44
same,Difference in LSMeans with regard to HAQ-DI,patients with dcSSc [4]; subgroup hsCRP >10 mg/L,−0.13
same,Difference in LSMeans with regard to HAQ-DI,patients with dcSSc [4]; subgroup hsCRP ≤10 mg/L,−0.03
same,collagen production,[1],reduce collagen production
same,Difference in LSMeans with regard to mRSS,patients with dcSSc [5]; [7],−8.0
same,Difference in LSMeans with regard to mRSS,patients with dcSSc [5]; [8],−1.7
same,Difference in LSMeans with regard to mRSS,patients with dcSSc [5]; [9],0.3
same,Difference in LSMeans with regard to mRSS,patients with dcSSc [5]; [10],−10.5
same,Difference in LSMeans with regard to mRSS,patients with dcSSc [5]; subgroup hsCRP >3 mg/L,−5.8
same,Difference in LSMeans with regard to mRSS,patients with dcSSc [5]; subgroup hsCRP >10 mg/L,−7.5
same,Difference in LSMeans with regard to mRSS,patients with dcSSc [5]; subgroup hsCRP ≤3 mg/L,1.0
same,Difference in LSMeans with regard to mRSS,patients with dcSSc [5]; subgroup hsCRP ≤10 mg/L,−1.2
same,mean change of mRSS for Riociguat compared to placebo,patients with dcSSc [5]; patients with FVC % predicted at baseline of 50-75,−7.9 units
same,mean change of mRSS for Riociguat compared to placebo,patients with dcSSc [5]; patients with hsCRP>10 mg/L,−7.5 units
same,mean change of mRSS for Riociguat compared to placebo,patients with dcSSc [5]; patients with hsCRP>3,−5.8 units
same,mean change of mRSS for Riociguat compared to placebo,patients with dcSSc [5]; patients ≥65 y of age,−6.7 units
same,change of lung function (FVC % predicted) at week 52 compared to baseline,"patients with dcSSc [6]; Riociguat group, dcSSc patients positive for anti-RNA polymerase III autoantibodies",+1.2
same,Difference in LSMeans with regard to FVC % predicted,patients with dcSSc [6]; [7],9.2
same,Difference in LSMeans with regard to FVC % predicted,patients with dcSSc [6]; [8],−1.3
same,Difference in LSMeans with regard to FVC % predicted,patients with dcSSc [6]; subgroup ILD at baseline no,−1.7
same,Difference in LSMeans with regard to FVC % predicted,patients with dcSSc [6]; subgroup ILD at baseline yes,5.1
same,Difference in LSMeans with regard to FVC % predicted,patients with dcSSc [6]; [9],−0.9
same,Difference in LSMeans with regard to FVC % predicted,patients with dcSSc [6]; [10],3.5
same,Difference in LSMeans with regard to FVC % predicted,patients with dcSSc [6]; subgroup hsCRP >10 mg/L,2.4
same,Difference in LSMeans with regard to FVC % predicted,patients with dcSSc [6]; subgroup hsCRP ≤10 mg/L,−0.5
